Experimental findings from patent US20210154162A1, “DRUG AND PHARMACEUTICAL COMPOSITION CONTAINING TRANSPORT PROTEIN INHIBITOR, AND USE” (Institute of Basic Medical Sciences Chinese Academy of …, priority 2018, published 2021) are described below.

Where a name gives a salt, the structure may show the parent alone.

Data set [1] relates to PD-1. The data set is described as follows: Effect of SAR and BCH on PD-1 expression in human peripheral blood CD8+ T cells (flow cytometry). It counts as cell-based. Conditions: breast cancer patients, 200 μM Kyn + 10 mM SAR or 100 μM BCH, 48 h. Here is the method:
Mononuclear cells were isolated and obtained from the peripheral whole blood of breast cancer patients by using Ficoll. CD8^+ T cells were sorted by magnetic beads, and seeded into a U-shaped bottom 96-well plate (100000 cells/well) while anti-CD3/CD28 magnetic beads were added to activate T cells. The culture medium was RPMI-1640 added with 10 ng/mL human IL-2. Cells were grouped and treated with drugs as follows.
(§1) Control group 1 (PBS): culture medium+PBS;
(§2) Experimental group 2 (Kyn): culture medium+200 μM Kyn;
Experimental group 3 (Kyn+SAR): culture medium+200 μM Kyn+10 mM SAR; Experimental group 4 (Kyn+BCH): culture medium+200 μM Kyn+100 μM BCH;
(§3) The expression level of PD-1 in CD8^+ T cells of each group was determined by flow cytometry after 48 h.
A general note: In flow cytometry, cells or beads pass a laser one at a time.

Data set [2] deals with PD-1. The data set is described as follows: Effect of SAR and BCH on PD-1 expression in mouse CD8+ T cells (flow cytometry). Format: cell-based. The note with it: 200 μM Kyn + 10 mM SAR or 100 μM BCH, 48 h. Here is the method: Mouse splenic CD8^+ T cells were obtained by magnetic bead sorting, and seeded into a U-shaped bottom 96-well plate (100000 cells/well) while anti-CD3/CD28 magnetic beads were added to activate T cells. The culture medium was RPMI-1640 added with 10 ng/mL mouse IL-2 and […] β-mercaptoethanol. Cells were grouped and treated with drugs as follows.
as §1, §2
Experimental group 3 (Kyn+SAR): culture medium+200 μM Kyn+10 mM SAR;
Experimental group 4 (Kyn+BCH): culture medium+200 μM Kyn+100 μM BCH;
as §3

Data set [3] relates to OVA-B16 TRCs. Briefly: OT-1 T cell cytotoxicity to OVA-B16 TRCs with SLC7A8/PAT4 inhibition or knockdown. It counts as cell-based, mouse. The note with it: co-culture. Here is the method:
(5) Activated OT-1 T cells were transfected with scramble shRNA, PAT4 shRNAs (Sh1 and Sh2) or SLC7A8 shRNAs (Sh1 and Sh2) for 72 h, and then co-cultured with OVA-B16 TRCs. TRC apoptosis was analyzed by flow cytometry.

Data set [4] relates to PD-1. Briefly: AhR activity and PD-1 expression in CD8+ T cells with SLC7A8/PAT4 inhibition or knockdown. Format: cell-based, mouse. Conditions: for PD-1 upregulation: Kyn 200 μM, 48 h; for AhR activity: T cells treated with transporter inhibitor. Here is the method:
(4) The experimental steps were the same as those of step (3), except that the expression of PD-1 was analyzed by flow cytometry.

Data set [5] concerns OVA-B16 cells. Briefly: Effect of SAR and BCH on killing of OVA-B16 cells by OT-1 CD8+ T cells (apoptosis, flow cytometry). Conditions: T cells pretreated 24 h with 10 mM SAR or 100 μM BCH; co-culture 1:10, 4 hours. It counts as cell-based, mouse. Here is the method:
Splenic CD8^+ T cells of OT-1 mouse were obtained by magnetic bead sorting and seeded into a U-shaped bottom 96-well plate (100000 cells/well). Cells were grouped and treated with drugs as follows.
as §1
Experimental group 2 (SAR): culture medium+10 mM SAR;
Experimental group 3 (BCH): culture medium+100 μM BCH;
After T cells were pretreated for 24 hours, 3D-cultured OVA-B16 cells were co-cultured with OT-1 CD8^+ T cells at a ratio of 1:10, and the apoptosis of OVA-B16 cells was determined by flow cytometry after 4 hours.

In data set [6] the test system is SLC7A8 and PAT4. The data set is described as follows: Kyn consumption by activated CD8+ T cells with SLC7A8/PAT4 inhibition or knockdown (ELISA). Format: cell-based, mouse. The note with it: Kyn 200 μM, 48 h. The protocol:
(3) Scramble shRNA or shRNA against SLC7A8 and PAT4 were delivered via retrovirus to activated CD8^+ T cells for 24 h, and then the transduced T cells were treated with Kyn (200 μM) for 48 h. Kyn levels in the supernatants were determined by ELISA and the Kyn consumption was calculated.
Background: An ELISA detects its analyte on a solid surface through an enzyme-linked reagent.

Data set [7] has as its system PD-1. Briefly: PD-1 expression in activated CD8+ T cells treated with TCDD (qPCR, flow cytometry). It counts as cell-based, mouse. Conditions: 48 h. Here is the method: (7) Activated CD8^+ T cells were treated with TCDD for 48 h and then PD-1 expression was analyzed by qPCR (left) and flow cytometry (right). The data represented mean±SEM.
For data set [8], the system named is PD-1. Briefly: PD-1 expression in anti-CD3/CD28 bead-activated CD8+ T cells treated with Kyn or other tryptophan metabolites (flow cytometry). It counts as cell-based, mouse. The note with it: other tryptophan metabolites 500 μM, 24 h. The protocol: (4) The isolated splenic CD8^+ T cells were incubated with anti-CD3/CD28 beads in the presence of different concentrations of Kyn. PD-1 expression was determined by flow cytometry.
(5) The experimental steps were the same as those of step (4), except that CD8^+ T cells were treated with 200 μM Kyn for different time periods as shown in FIG. 2E.
(6) Anti-CD3/CD28 bead-activated CTLs were treated with PBS, 200 μM Kyn or other metabolites (500 μM) from the tryptophan pathway (melatonin, kynurinic acid and indoxyle sulphate). After 24 h, PD-1 expression was determined by flow cytometry.

The test system of data set [9] is PD-1. The data set is described as follows: PD-1 expression in human CD8+ T cells treated with Kyn and AhR inhibitors (flow cytometry). It counts as cell-based. The note with it: human CD8+ T cells, Kyn plus inhibitor (DMF 20 μM), 48 h. The protocol:
(4) CD8^+ T cells isolated from PBMCs of patients with breast cancer or lung cancer were activated by anti-CD3/CD28 beads and treated with PBS, Kyn (200 μM) or Kyn/DMF (20 μM) for 48 h. The expression of PD-1 was determined by flow cytometry.
(5) CD8^+ T cells isolated from patients with breast cancer or lung cancer were treated with DMF (20 μM) for 48 h. PD-1 expression was determined by flow cytometry (n=6).

The subject of data set [10] is PAT4 and SLC7A8. Briefly: PAT4 and SLC7A8 expression in CD8+ T cells from breast cancer patients (real-time PCR). The note with it: Kyn/DMF (20 μM) or Kyn/CH (50 μM), 48 h. It counts as cell-based, human. Here is the method: (8) CD8^+ T cells from breast cancer patients were treated with PBS, Kyn ([…] (20 μM) or Kyn/CH (50 μM) for 48 h. The expression of PAT4 and SLC7A8 was determined by real-time PCR. The determination results were as shown in FIG. 7I.
For orientation: Quantitative PCR measures a nucleic acid by following its amplification.

Data set [11] has as its system AhR. The data set is described as follows: PD-1 expression in activated CD8+ T cells treated with Kyn plus AhR inhibitor (flow cytometry). It counts as cell-based, mouse. Conditions: Kyn plus inhibitor (DMF 10 or 20 μM), 72 h. The protocol:
(4) CD8^+ T cells activated by anti-CD3/CD28 beads were treated with PBS, Kyn or Kyn/DMF (10 or 20 μM) for 72 h. The expression of PD-1 was determined by flow cytometry.

Data set [12] deals with PAT4 and SLC7A8. Briefly: PAT4 and SLC7A8 expression in activated CD8+ T cells (real-time PCR, immunostaining). It counts as cell-based, mouse. Conditions: activated CD8+ T cells, Kyn/CH-223191 (10 μM) or Kyn/DMF (20 μM), 48 h. The protocol: (2) Activated CD8^+ T cells were treated with PBS or Kyn (200 μM) for 24 h. The expression of PAT4 and SLC7A8 was determined by real-time PCR (left) and immunostaining (right). Bar, […].
(6) The mRNA expression of PAT4 and SLC7A8 was determined in activated CD8^+ T cells treated with PBS, Kyn, Kyn/CH-223191 (10 μM) or Kyn/DMF (20 μM) for 48 h.

Data set [13] has as its target T1, tryptophan transporter SLC1A5 (Mus musculus, UniProt P51912).
T1 construct: endogenous in cells; host or cells: mouse OVA-B16 melanoma cells
T1 sequence (P51912 1-553): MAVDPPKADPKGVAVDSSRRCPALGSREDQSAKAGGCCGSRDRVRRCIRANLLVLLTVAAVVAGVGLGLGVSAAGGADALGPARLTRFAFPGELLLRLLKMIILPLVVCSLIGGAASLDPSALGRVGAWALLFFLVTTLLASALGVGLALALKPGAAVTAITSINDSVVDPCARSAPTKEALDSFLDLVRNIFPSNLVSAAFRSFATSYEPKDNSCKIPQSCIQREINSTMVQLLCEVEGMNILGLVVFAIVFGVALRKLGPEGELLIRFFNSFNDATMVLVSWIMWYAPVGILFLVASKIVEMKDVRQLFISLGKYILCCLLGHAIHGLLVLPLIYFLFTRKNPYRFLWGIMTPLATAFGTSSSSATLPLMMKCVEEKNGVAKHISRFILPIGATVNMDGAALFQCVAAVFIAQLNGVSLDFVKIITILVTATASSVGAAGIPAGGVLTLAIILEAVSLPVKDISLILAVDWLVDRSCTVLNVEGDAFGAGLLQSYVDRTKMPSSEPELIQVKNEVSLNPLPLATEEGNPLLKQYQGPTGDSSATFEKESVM
The data set is described as follows: Effect of GPNA on the uptake of tryptophan by tumor cells (ELISA of lysates). Conditions: OVA-B16 cells, 50 ng/mL IFN-γ, 24 h. It counts as cell-based. Here is the method: Mouse OVA-B16 cells were cultured in RPMI-1640 culture medium in vitro and were group and treated as follows.
as §1
Control group 2 (GPNA): culture medium+10 μM GPNA;
Experimental group 3 (IFN-γ): culture medium+50 ng/mL IFN-γ;
Experimental group 4 (IFN-γ+GPNA): culture medium+50 ng/mL IFN-γ+10 μM GPNA;
The cells in each group were collected after 24 h and ultrasonically broken, the concentrations of tryptophan in the lysates were determined by ELISA, and BCA protein assay was carried out at the same time.

Regarding `NC1(C(=O)O)CC2CCC1C2` (centres unmarked) [BCH, 2-amino-2-norbornanecarboxylic acid], the “expression of PD-1 in CD8+ T cells” value in data set [1] was “significantly reducing”. For the same molecule, the “expression of PD-1 in CD8+ T cells” value in data set [2] was “significantly reducing”. In addition, the “OT-1 T cell cytotoxicity to OVA-B16 TRCs” value in data set [3] is “enhanced”. Further, in data set [4], the PD-1 upregulation result is “abolished” and the AhR activity entry is on record as “inhibited”. Also, the “apoptosis ratio of OVA-B16 tumor cells” value in [5] is given as “increased significantly”. Also, the “entry of Kyn into T cells” value in data set [6] was “blocked”.

For `Clc1cc2c(cc1Cl)Oc1cc(Cl)c(Cl)cc1O2` [TCDD], the PD-1 expression result in [7] is recorded as “upregulated”.

Take `O=S(=O)(O)Oc1c[nH]c2ccccc12` [indoxyl sulfate]: the PD-1 expression result in data set [8] was “none of them was able to alter PD-1 expression”.

For `COc1ccc2[nH]cc(CCNC(C)=O)c2c1` [melatonin], the PD-1 expression result in [8] is on record as “none of them was able to alter PD-1 expression”.

Take `Cc1ccccc1N=Nc1ccc(NC(=O)c2ccnn2C)c(C)c1` [CH-223191]: the “Kyn-induced PD-1 upregulation” value in data set [9] is listed as “inhibited”. In addition, the “Kyn-induced upregulation of SLC7A8 and PAT4” value is listed as “blocked” in data set [10] and “effectively inhibiting” in data set [12]. Further, in data set [11], the “Kyn-dependent upsurge of PD-1” value is “thwarted”.

Turning to `CNCC(=O)O` [SAR, sarcosine], the “expression of PD-1 in CD8+ T cells” value in [1] and in data set [2] was “significantly reducing” throughout. For the same molecule, the “OT-1 T cell cytotoxicity to OVA-B16 TRCs” value in data set [3] was “enhanced”. For the same molecule, in data set [4], the PD-1 upregulation result was “abolished”. Besides, in data set [4], the AhR activity result is recorded as “inhibited”. Further, in [5], the “apoptosis ratio of OVA-B16 tumor cells” value was “increased significantly”. Further, the “entry of Kyn into T cells” value in data set [6] was “blocked”.

As for `O=C(O)c1cc(=O)c2ccccc2[nH]1` [kynurenic acid], the PD-1 expression result in [8] is on record as “none of them was able to alter PD-1 expression”.

B1: IFN-γ: recombinant IFN-γ purchased from R & D Systems (protein, UniProt P01579 24-161, looked up)
Interferon gamma: QDPYVKEAENLKKYFNAGHSDVADNGTLFLGILKNWKEESDRKIMQSQIVSFYFKLFKNFKDDQSIQKSVETIKEDMNVKFFNSNKKKRDDFEKLTNYSVTDLNVQRKAIHELIQVMAELSPAAKTGKRKRSQMLFRG
For B1, the “uptake of tryptophan by tumor cells” value in data set [13] is on record as “significantly increasing”.
